Source: patent publication US10752626B2, “Iso-citrate dehydrogenase (IDH) inhibitor” (SHANGHAI METON PHARMACEUTICAL CO., LTD, priority 2016, dated 2020)

Assays:
[1] = target: IDH1 R132H (Homo sapiens (Human), UniProt O75874, R132H); experiment: Biochemical assay for inhibition of mutant IDH1 R132H; details: tested in triplet
Source text: (§1) The present disclosure provides a biochemical assay method for detecting the IDH inhibition and selectivity of the compounds by detecting IDH enzyme activity directly.
(§2) Wild-type IDH enzyme could convert NADP^+ to NADPH when it catalyzes the α-KG producing reaction. Mutant IDH enzyme could convert NADPH to NADP^+ when it catalyzes the D-2-HG producing reaction. So the activity of wild-type and mutant IDH1/2 could be measured by monitoring NADPH level change: in the reaction catalyzed by wild-type IDH1/2, the newly generated NADPH is utilized instantly by coupled diaphorase-resazurin reaction to generate resorufin which is fluorescent (at Excitation 544 nm, Emission 590 nm) and thus NADPH is monitored indirectly; while in the reaction catalyzed by mutant IDH1/2, NADPH is directly monitored as it is fluorescent (at Excitation 340 nm, Emission 460 nm). By monitoring the change of NADPH level in the reaction, the enzyme activity could be determined rapidly and efficiently, IC50 of a compound could also be assayed.
(§3) The test compounds were prepared into 50 mM stock solutions in DMSO and stored at −20° C. Each test compound stock was further diluted to obtain a 100× stock solution at a concentration of 200 μM, 100 μM, 50 μM, 25 μM, 12.5 jμM, 6.25 μM and 3.125 μM, respectively, for the final use on the day of test.
(§4) Inhibition of Mutant IDHJ (R132H or R132C):
(§5) Solution A was prepared by combining 1 M Tris-HCl pH7.5 (300 μL), 5 M NaCl (450 μL), 1 M MgCl2 (150 μL), 1 M DTT (15 μL), 20 mg/mL BSA (37.5 μL), 20 mM NADPH (20 μL), and 0.5 mM α-KG (40 μL), followed by adding deionized water to a final volume of 15 mL.
(§6) Reaction buffer was prepared by combining 1 M Tris-HCl pH 7.5 (200 μL), 5 M NaCl (300 μL), 1 M MgCl2 (100 μL), 1 M DTT (10 μL) and 20 mg/mL BSA (25 μL), followed by adding deionized water to a final volume of 10 mL.
(§7) Solution B was prepared by combining the reaction buffer (5 mL) and […] IDH1-R132H (5.21 μL) or 107 μM IDH1-R132C (4.67 μL).
(§8) 148 μL Solution A was added into each sample well of a 96-well plate P1, and then 2 μL of the test compound solution at each concentration and 2 μL of DMSO (negative control/blank) were added into individual sample well respectively. 50 μL of Solution B was added into each of the sample wells having test compounds and one sample well having DMSO only, and 50 μL of reaction buffer was added into another sample well having DMSO only, respectively. P1 was put into BioTek Synergy H4 Microplate reader (BioTek Instruments Inc., Winooski, U.S.), and the program was set as follows: 37° C., shake plate 5 seconds, run kinetic mode, total detection time 20 min, detection intervals 40 seconds, detection mode fluorescence (at Excitation 340 nm, Emission 460 nm). The data were exported, the relative enzyme activity and the half-maximal inhibitory concentration (IC50) for the test compound were calculated. Relative enzyme activity was calculated as the absolute value of the slope of the Emission 460 reads of each well plotted against time (which represents the conversion rate of ca-KG to 2-HG through IDH1 modulated utilization of NADPH). The Dose-response curve was drawn and the IC50 was calculated via fitting. The IDH inhibition and selectivity of each test compound can be evaluated according to the effect of the compounds on the IDH enzyme activity.
(§9) The IDH inhibition activity of the compounds were assessed according to Test 5 of the Biological evaluation section. The test for mutant IDH1 R132H/R132C inhibition of each compound was carried out in triplet. For IDH1 R132H, the enzyme activity of exemplary Compounds 16, 21, 22, 23, 24 and 31 is plotted as a function of logarithm of the concentration of the compound in FIGS. 8A-8C, 9A-9C, 10A-10C, 11A-11C, 12A-12C and 13A-13C, respectively. […]

[2] = target: IDH1 R132C (Homo sapiens (Human), UniProt O75874, R132C); experiment: Biochemical assay for inhibition of mutant IDH1 R132C; details: tested in triplet
Source text: as §1, §2, §3, §4, §5, §6, §7, §8, §9

Chain of IDH1 R132C (O75874 whole entry R132C): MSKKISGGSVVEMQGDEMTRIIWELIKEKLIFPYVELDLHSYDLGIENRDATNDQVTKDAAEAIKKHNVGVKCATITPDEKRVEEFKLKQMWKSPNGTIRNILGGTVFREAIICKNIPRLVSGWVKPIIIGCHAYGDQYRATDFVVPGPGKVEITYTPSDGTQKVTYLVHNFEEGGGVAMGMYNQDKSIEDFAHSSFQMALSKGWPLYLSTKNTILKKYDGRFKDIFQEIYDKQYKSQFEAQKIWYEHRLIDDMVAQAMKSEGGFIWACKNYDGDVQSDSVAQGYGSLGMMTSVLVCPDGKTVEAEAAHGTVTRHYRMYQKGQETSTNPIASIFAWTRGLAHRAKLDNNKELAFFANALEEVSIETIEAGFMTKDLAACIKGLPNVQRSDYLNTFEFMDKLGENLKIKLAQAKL
Chain of IDH1 R132H (O75874 whole entry R132H): as the sequence (O75874 whole entry R132C) above, with C132H counted along it

SMILES	IC50 [1] [nM]	IC50 [2] [nM]
CCN1Cc2c(ccnc2N[C@@H](C)c2ccc(Oc3ccc(C)cc3)cc2)C1=O [Compound 16, (S)-2-ethyl-4-(1-(4-(p-tolyloxy)phenyl)ethylamino)-2,3-dihydro-1H-pyrrolo [3,4-c]pyridin-1-one]	< 1000	< 1500
CCN1Cc2c(ccnc2N[C@@H](C)c2ccc(Oc3ccccc3)c(F)c2)C1=O [Compound 23, (S)-2-ethyl-4-((1-(3-fluoro-4-phenoxyphenyl)ethyl)amino)-2,3-dihydro-1H-pyrrolo[3,4-c]pyridin-1-one]	< 1000	< 1500
